Data: paper PMC11995724, “Antibiotic target discovery by integrated phenotypic and activity-based profiling of electrophilic fragments” (Cell chemical biology, 2025)
Structures can show the parent of a compound that is named as a salt.

Test: in vitro
Conditions: human, hek293t cells

Row | Structure (SMILES) | viability at 48 h, 25 µM [%]
1 | Cc1ccc2nc(-c3ccc(F)cc3)c(CNC(=O)C(C)Cl)n2c1 (centres unmarked) [5-D21, 2-chloro-N-{[2-(4-fluorophenyl)-6-methylimidazo[1,2-a]pyridin-3-yl]methyl}propanamide] | 113
2 | Cc1ccc(NC(=O)C(C)Cl)cc1S(=O)(=O)N1CCOCC1 (centres unmarked) [5-D22, 2-chloro-N-[4-methyl-3-(morpholine-4-sulfonyl)phenyl]propanamide] | 77.8
3 | CN(C1CCCCC1)S(=O)(=O)c1ccc(NC(=O)CCl)cc1 [5-E03, 2-chloro-N-{4-[cyclohexyl(methyl)sulfamoyl]phenyl}acetamide] | -0.149
4 | Cc1noc(CC(NC(=O)CCl)c2ccccc2)n1 (centres unmarked) [5-E04, 2-chloro-N-[2-(3-methyl-1,2,4-oxadiazol-5-yl)-1-phenylethyl]acetamide] | 29.3
5 | COc1cccc(CN(C(=O)CCl)C23CC4CC(CC(C4)C2)C3)c1 [5-E05, N-(adamantan-1-yl)-2-chloro-N-[(3-methoxyphenyl)methyl]acetamide] | 0.151
6 | CC(C)N(Cc1ccc(N(C)C)cc1)C(=O)CCl [5-E06, 2-chloro-N-{[4-(dimethylamino)phenyl]methyl}-N-(propan-2-yl)acetamide] | 1.94
7 | Cc1ccc(S(=O)(=O)NC2CN(C(=O)CCl)C2)cc1 [5-E07, N-[1-(2-chloroacetyl)azetidin-3-yl]-4-methylbenzene-1-sulfonamide] | 0.324
8 | O=C(CCl)N1CCCCC1Cn1ccnn1 (centres unmarked) [5-E08, 2-chloro-1-{2-[(1H-1,2,3-triazol-1-yl)methyl]piperidin-1-yl}ethan-1-one] | 28
9 | O=C(CCl)NC1CC(=O)N(c2cccc(C(F)(F)F)c2)C1 (centres unmarked) [5-E09, 2-chloro-N-{5-oxo-1-[3-(trifluoromethyl)phenyl]pyrrolidin-3-yl}acetamide] | 0.777
10 | O=C(CCl)N1CCOCC1c1noc(-c2ccccc2)n1 (centres unmarked) [5-E10, 2-chloro-1-[3-(5-phenyl-1,2,4-oxadiazol-3-yl)morpholin-4-yl]ethan-1-one] | 1.07
11 | CC(NC(=O)CCl)c1cn(C)c2cc(Cl)ccc12 (centres unmarked) [5-E11, 2-chloro-N-[1-(6-chloro-1-methyl-1H-indol-3-yl)ethyl]acetamide] | 0.196
12 | COc1cc(CN(C(=O)CCl)C2CCCOC2)ccc1C (centres unmarked) [5-E12, 2-chloro-N-[(3-methoxy-4-methylphenyl)methyl]-N-(oxan-3-yl)acetamide] | 0.549
13 | CN(C)S(=O)(=O)c1cc(NC(=O)CCl)ccc1Cl [5-E13, 2-chloro-N-[4-chloro-3-(dimethylsulfamoyl)phenyl]acetamide] | 0.0364
14 | Cc1cc(CN(C(=O)CCl)c2ccc(F)cc2)nn1C [5-E14, 2-chloro-N-[(1,5-dimethyl-1H-pyrazol-3-yl)methyl]-N-(4-fluorophenyl)acetamide] | 0.639
15 | O=C(CCl)NCC1(c2ccccc2)CC1 [5-E15, 2-chloro-N-[(1-phenylcyclopropyl)methyl]acetamide] | 3.61
16 | Cc1cc(C(C)N(Cc2c(C)noc2C)C(=O)CCl)c(C)o1 (centres unmarked) [5-E16, 2-chloro-N-[(3,5-dimethyl-1,2-oxazol-4-yl)methyl]-N-[1-(2,5-dimethylfuran-3-yl)ethyl]acetamide] | 1.18
17 | CC(C)(C)C1CCc2c(sc(NC(=O)CCl)c2C#N)C1 (centres unmarked) [5-E17, N-(6-tert-butyl-3-cyano-4,5,6,7-tetrahydro-1-benzothiophen-2-yl)-2-chloroacetamide] | 0.117
18 | O=C(CCl)N1CCN(C2CCCN(C3CCOCC3)C2=O)CC1 (centres unmarked) [5-E18, 3-[4-(2-chloroacetyl)piperazin-1-yl]-1-(oxan-4-yl)piperidin-2-one] | 9.07
19 | O=C(CCl)NC1CCN(Cc2ccccc2)CC1 [5-E19, N-(1-benzylpiperidin-4-yl)-2-chloroacetamide hydrochloride] | 1.13
20 | O=C(CCl)N1CCC(C2CCCN(C(=O)C(F)(F)F)C2)CC1 (centres unmarked) [5-E20, 1-[1'-(2-chloroacetyl)-[3,4'-bipiperidin]-1-yl]-2,2,2-trifluoroethan-1-one] | 1.17
21 | CC(Cl)C(=O)Nc1sccc1C#N (centres unmarked) [5-E21, 2-chloro-N-(3-cyanothiophen-2-yl)propanamide] | 59
22 | O=C(CCl)N1C[C@@H]2C[C@H]1CN2c1ccccc1 [5-E22, 2-chloro-1-[(1S,4S)-5-phenyl-2,5-diazabicyclo[2.2.1]heptan-2-yl]ethan-1-one] | 0.453
23 | CNC(=O)C(F)(F)C1(O)CCN(C(=O)CCl)CC1 [5-F03, 2-[1-(2-chloroacetyl)-4-hydroxypiperidin-4-yl]-2,2-difluoro-N-methylacetamide] | 1.94
24 | CC1CN(C(=O)C(C)Cl)CC(C)O1 (centres unmarked) [5-F04, 2-chloro-1-(2,6-dimethylmorpholin-4-yl)propan-1-one] | 96.1
25 | CC(C)n1cc(C2=CCCN(C(=O)CCl)CC2)nn1 [5-F05, 2-chloro-1-{4-[1-(propan-2-yl)-1H-1,2,3-triazol-4-yl]-2,3,6,7-tetrahydro-1H-azepin-1-yl}ethan-1-one] | 1.75
26 | CN(Cc1ccc(N(C)C)cc1)C(=O)CCl [5-F06, 2-chloro-N-{[4-(dimethylamino)phenyl]methyl}-N-methylacetamide hydrochloride] | 0.499
27 | CCN(Cc1cccs1)C(=O)CCl [5-F07, 2-chloro-N-ethyl-N-[(thiophen-2-yl)methyl]acetamide] | 1.01

Row | Structure (SMILES) | viability at 48 h, 25 µM [%]
28 | CC(Cl)C(=O)Nc1ccc(-c2c[nH]cn2)cc1 (centres unmarked) [5-F08, 2-chloro-N-[4-(1H-imidazol-4-yl)phenyl]propanamide] | 98.2
29 | CC(C1CC1)N(Cc1ccccc1)C(=O)CCl (centres unmarked) [5-F09, N-benzyl-2-chloro-N-(1-cyclopropylethyl)acetamide] | 0.956
30 | CC(Cl)C(=O)Nc1ccccc1 (centres unmarked) [5-F10, 2-chloro-N-phenylpropanamide] | 91.9
31 | CC(Cl)C(=O)N1CCCCCC1 (centres unmarked) [5-F11, 1-(azepan-1-yl)-2-chloropropan-1-one] | 105
32 | CC(C1CC1)N(C(=O)CCl)C1CC1 (centres unmarked) [5-F12, 2-chloro-N-cyclopropyl-N-(1-cyclopropylethyl)acetamide] | 1.06
33 | CC(NC(=O)CCl)c1nnc(-c2cccc(F)c2)s1 (centres unmarked) [5-F13, 2-chloro-N-{1-[5-(3-fluorophenyl)-1,3,4-thiadiazol-2-yl]ethyl}acetamide] | 0.963
34 | CC(CC#N)Sc1ccccc1NC(=O)CCl (centres unmarked) [5-F14, 2-chloro-N-{2-[(1-cyanopropan-2-yl)sulfanyl]phenyl}acetamide] | 1.02
35 | CC(Cl)C(=O)N1Cc2ccccc2N(C)C[C@@H]1C (stereo partly drawn) [5-F15, 2-chloro-1-[(3S)-1,3-dimethyl-2,3,4,5-tetrahydro-1H-1,4-benzodiazepin-4-yl]propan-1-one] | 108
36 | Cc1ccc(-c2csc(NC(=O)CCl)n2)cc1C [5-F16, 2-chloro-N-[4-(3,4-dimethylphenyl)-1,3-thiazol-2-yl]acetamide] | 0.595
37 | CC(Cl)C(=O)N1CCN(C(=O)c2cccc(OC(F)F)c2)CC1 (centres unmarked) [5-F17, 2-chloro-1-{4-[3-(difluoromethoxy)benzoyl]piperazin-1-yl}propan-1-one] | 106
38 | CN(CC(=O)Nc1cccc(Cl)c1)C(=O)CCl [5-F18, 2-chloro-N-{[(3-chlorophenyl)carbamoyl]methyl}-N-methylacetamide] | 0.687
39 | CC(Cl)C(=O)Nc1cccc(-c2ncc3n2CCCC3)c1 (centres unmarked) [5-F19, 2-chloro-N-(3-{5H,6H,7H,8H-imidazo[1,5-a]pyridin-3-yl}phenyl)propanamide] | 95.8
40 | O=C(CCl)NCCc1c(F)cccc1F [5-F20, 2-chloro-N-[2-(2,6-difluorophenyl)ethyl]acetamide] | 15.5
41 | CC(Cl)C(=O)N1CC(n2cc(C(N)=O)nn2)C1 (centres unmarked) [5-F21, 1-[1-(2-chloropropanoyl)azetidin-3-yl]-1H-1,2,3-triazole-4-carboxamide] | 94.6
42 | O=C(CCl)N(Cc1ccccc1)Cc1ccco1 [5-F22, N-benzyl-2-chloro-N-[(furan-2-yl)methyl]acetamide] | 0.693
43 | COc1ccc(NC(C)=O)cc1NC(=O)CCl [5-G03, 2-chloro-N-(5-acetamido-2-methoxyphenyl)acetamide] | 1.44
44 | CCC(=O)NC1CCN(C(=O)CCl)C1 (centres unmarked) [5-G04, N-[1-(2-chloroacetyl)pyrrolidin-3-yl]propanamide] | 10.3
45 | CC(Cl)C(=O)Nc1ccccc1C(N)=O (centres unmarked) [5-G05, 2-(2-chloropropanamido)benzamide] | 101
46 | Cc1noc(C)c1CN(C)C(=O)CCl [5-G06, 2-chloro-N-[(3,5-dimethyl-1,2-oxazol-4-yl)methyl]-N-methylacetamide] | 1.87
47 | COc1ccc2[nH]c3c(c2c1)CCCC3NC(=O)CCl (centres unmarked) [5-G07, 2-chloro-N-(6-methoxy-2,3,4,9-tetrahydro-1H-carbazol-1-yl)acetamide] | 0.129
48 | O=C(CCl)N1CCOc2c1cccc2C(F)(F)F [5-G08, 2-chloro-1-[8-(trifluoromethyl)-3,4-dihydro-2H-1,4-benzoxazin-4-yl]ethan-1-one] | 0.974
49 | O=C(CCl)NC1CCC2(CCC1(F)F)OCCO2 (centres unmarked) [5-G09, 2-chloro-N-{9,9-difluoro-1,4-dioxaspiro[4.6]undecan-8-yl}acetamide] | 5.9
50 | O=C(CCl)N1CC(S(=O)(=O)Nc2ccccc2)C1 [5-G10, 1-(2-chloroacetyl)-N-phenylazetidine-3-sulfonamide] | 1.28
51 | CC(NC(=O)CCl)C(=O)Nc1ccc(Cl)cc1 (centres unmarked) [5-G11, 2-(2-chloroacetamido)-N-(4-chlorophenyl)propanamide] | 1.06
52 | Cc1cc(CN(Cc2cnn(C)c2)C(=O)CCl)ccc1Cl [5-G12, 2-chloro-N-[(4-chloro-3-methylphenyl)methyl]-N-[(1-methyl-1H-pyrazol-4-yl)methyl]acetamide] | -0.0746
53 | CC(C)c1cccc(C(C)C)c1NC(=O)CCl [5-G13, N-[2,6-bis(propan-2-yl)phenyl]-2-chloroacetamide] | 37.8
